According to publication PMC12270663, “Cagrilintide lowers bodyweight through brain amylin receptors 1 and 3” (eBioMedicine, 2025):

What was measured:
AMYRs and CTR = settings: cited from earlier work
From the text: In a cellular assay, cagrilintide was confirmed to be a non-selective agonist of the CTR and AMYRs across multiple assays of proximal ...

[1] = test system: area postrema (AP) neurons of WT and RAMP1/3 KO mice; assay: Study 4 cohort 1: cFos positive neurons, AP; type: in vivo, mouse; settings: second statistical test, Figure 4b
Method: Mice were group housed in a controlled environment maintained at 21 ± 2 °C, under a 12/12 h light–dark cycle (lights off at 11.00 h). In the first cohort, 25 male WT and 25 male RAMP1/3 KO mice aged between 12 and 20 week-old were fed chow diet and maintained under group housing condition. In the second cohort, 18 male WT, 18 male RAMP1 KO, 18 male RAMP3 KO and 18 male RAMP1/3 KO mice aged between 10 and 15 week-old were fed chow diet and maintained under group housing condition.
For both cohorts, animals were deeply anesthetised 90 min later (pentobarbital 100 mg/kg, i.p) and transcardially perfused with cold 0.1 M of phosphate buffer (PB) for 1.5 min followed by 4% of paraformaldehyde (PFA) in PB for 2.5 min. Brains were removed and postfixed overnight in 4% of PFA and cryoprotected in 20% of sucrose-PB for 24 h. Brains were frozen in hexane on dry ice and stored at −80 °C until sectioning. Stereological brain sampling of the areas of interest was performed and brain were serially cut on a cryostat (Leica Biosystems, Germany, cat# CM3050S), mounted on Superfrost Plus slides (Thermo Fisher Scientific, Reinach, Switzerland), and cryoprotected in 50% of PB, 30% of ethylene glycol, 20% of glycerol, and subsequently stored at −20 °C.
Blocking of the mouse brain sections was performed with 0.4% Triton–4% normal goat serum in PBS for 2 h at room temperature. AP/NTS and LPBN sections were incubated at 4 °C for 48 h with rabbit anti-Fos antibody (1:500, Cell signalling technology, Switzerland, Cat# 2250, RRID: AB_2247211), and then after PBS washes, incubated with goat anti-rabbit Alexa Fluor CY3 (1:200, LuBio Science GmbH, Switzerland for Jackson Immunoresearch, Cat# 111-165-144) or alexa fluor 488 for 2 h at room temperature. After thorough washing in PBS, the sections were counterstained with DAPI, mounted immediately and coverslipped with Vectashield antifade Mounting Medium (Vectorlabs, Burlingame, USA, cat# H-1400).[40]
Photomicrographs of all sections containing AP, NTS and LPBN were taken at 20× magnification using Zeiss Axio Scan.Z1 slidescanner (Center for Microscopy and Image Analysis UZH, Zeiss, Germany). All images for each study were acquired using the same exposure time. Scanned images were imported into QuPath (QuPath 0.5.0) for quantification. Three to four sections were counted and averaged per area of interest. A polygon tool was used manually to determine the boundary of the region of interest of the brain section. A cell detection tool was used to detect every cell in the section by using a built-in cell segmentation algorithm. The cell detection tool was used on the DAPI channel to make sure that only a cell was recognised and not the background or artefact by system. A detection classifier was created by using the create detection classifier function. The numbers of positive counted DAPI cells containing a cFos signal were automatically counted within the region. The experimental group was blinded to the experimenter during the analysis.

[2] = test system: WT and RAMP1/3 KO high fat diet fed mice; assay: Study 3: 3-week treatment, food intake and body weight; type: in vivo, mouse
Method: Male mice were housed in a controlled environment maintained at 21 ± 2 °C, under a 12/12 h light–dark cycle (lights off at 11.00 h). Mice had ad libitum access to standard chow (3.14 kcal/g of food; Kliba, Switzerland, cat# 3436) and water, until 3–4 weeks old. Twenty-four WT and twenty-four RAMP 1/3 KO male mice were fed a 60% fat HFD (5.24 kcal/g of food; SSNIFF Spezialdiäten GmbH, Germany, cat# EF D12452) provided ad libitum for 18 weeks. Then mice were fed to a 45% fat HFD (4.73 kcal/g of food; SSNIFF Spezialdiäten GmbH, Germany, cat# EF D12451) provided ad libitum for 6 weeks until the end of the study. The mice were group housed (3–4 mice per cage) until 1 week before the 21-day treatment period. Each cage was equipped with a red plastic house, tissue paper, nest-building material and wood shavings. Prior to the 21-day treatment, mice were injected with vehicle for three days to acclimate to the daily subcutaneous injections and reduce stress associated with the injections.
(§1) Mice were s.c. injected once a day for 3 weeks 1 h before dark onset between 9.00 and 10.00 h. Prior to injection, daily body weight and food intake were measured manually. On the day of sacrifice, mice were anesthetised with pentobarbital (100 mg/kg, i.p., Cantonal Pharmacy of Zurich, Switzerland) 24 h after receiving the last dose of peptide.

[3] = test system: WT and RAMP1/3 KO high fat diet fed mice; assay: Study 3: body composition by EchoMRI; type: in vivo, mouse; settings: 150 nmol/kg/d s.c., 3 weeks
Method: as §1
Brains were harvested, snap frozen on dry ice and kept at −80 °C until mRNA extraction for next-generation sequencing (NGS) analysis. Blood samples were collected from the right ventricle of the heart during the sacrifice in 1 mL EDTA-coated tubes containing dipeptidyl peptidase-4 inhibitor (10 μL/mL blood; Sigma Aldrich, Switzerland, cat# DPP4-010) and protease inhibitor (30 μL/mL blood; Sigma Aldrich, Switzerland, cat# P2714). After centrifugation, plasma was kept at −80 °C. The mice were stored at −20 °C until body composition analysis was performed.
Lean and fat mass were measured post-mortem using EchoMRI (EchoMRI LLC, USA) at the Zurich Integrative Rodent Physiology (University of Zurich). Calibrations and measurements were performed according to manufacturer's instructions. Two measurements were performed and averaged per mouse. Fat mass and lean mass values are expressed as percent of body weight.

Compound	binding to AMYRs (AMYRs and CTR)	Predicted (LS) mean diff., AP cFos after square root transformation ([1]; RAMP 1/3 KO, Vehicle vs. sCT (3 nmol/kg), Tukey)	Predicted (LS) mean diff., AP cFos after square root transformation ([1]; RAMP 1/3 KO, Vehicle vs. sCT (150 nmol/kg), Tukey)	Predicted (LS) mean diff., AP cFos after square root transformation ([1]; RAMP 1/3 KO, sCT (3 nmol/kg) vs. Cagrilintide (3 nmol/kg), Tukey)	Predicted (LS) mean diff., AP cFos after square root transformation ([1]; RAMP 1/3 KO, sCT (3 nmol/kg) vs. sCT (150 nmol/kg), Tukey)	Predicted (LS) mean diff., AP cFos after square root transformation ([1]; RAMP 1/3 KO, sCT (150 nmol/kg) vs. Cagrilintide (3 nmol/kg), Tukey)	Predicted (LS) mean diff., AP cFos after square root transformation ([1]; WT, Vehicle vs. sCT (3 nmol/kg), Tukey)	Predicted (LS) mean diff., AP cFos after square root transformation ([1]; WT, Vehicle vs. sCT (150 nmol/kg), Tukey)	Predicted (LS) mean diff., AP cFos after square root transformation ([1]; WT, sCT (3 nmol/kg) vs. Cagrilintide (3 nmol/kg), Tukey)	Predicted (LS) mean diff., AP cFos after square root transformation ([1]; WT, sCT (3 nmol/kg) vs. sCT (150 nmol/kg), Tukey)	Predicted (LS) mean diff., AP cFos after square root transformation ([1]; WT, sCT (150 nmol/kg) vs. Cagrilintide (3 nmol/kg), Tukey)	Predicted (LS) mean diff., AP cFos after square root transformation ([1]; sCT (3 nmol/kg), WT vs. RAMP 1/3 KO)	Predicted (LS) mean diff., AP cFos after square root transformation ([1]; sCT (150 nmol/kg), WT vs. RAMP 1/3 KO)	acute anorectic effect on day 1 ([2]; RAMP1/3 KO mice, cagrilintide 3, sCT 150 nmol/kg s.c.)	weight gain on subchronic treatment ([2]; WT mice, 150 nmol/kg/d s.c.)	Food intake on Day 1 ([2]; WT mice, cagrilintide 3, sCT 150 nmol/kg s.c., mean ± SEM, n = 7–8/group) [g]	residence time (dissociation) (AMYRs and CTR; comparable for all AMYRs / all receptors) [min]	reduction of relative lean mass in KO mice compared to WT [3] [%]	effect on body composition ([3]; WT mice)
Davalintide	binds irreversibly	–	–	–	–	–	–	–	–	–	–	–	–	–	–	–	–	–	–
CC(C)C[C@H](NC(=O)[C@H](CCCCN)NC(=O)CNC(=O)[C@H](CC(C)C)NC(=O)[C@@H](NC(=O)[C@@H]1CSSC[C@H](N)C(=O)N[C@@H](CO)C(=O)N[C@@H](CC(N)=O)C(=O)N[C@@H](CC(C)C)C(=O)N[C@@H](CO)C(=O)N[C@@H]([C@@H](C)O)C(=O)N1)C(C)C)C(=O)N[C@@H](CO)C(=O)N[C@@H](CCC(N)=O)C(=O)N[C@@H](CCC(=O)O)C(=O)N[C@@H](CC(C)C)C(=O)N[C@@H](Cc1c[nH]cn1)C(=O)N[C@@H](CCCCN)C(=O)N[C@@H](CC(C)C)C(=O)N[C@@H](CCC(N)=O)C(=O)N[C@H](C(=O)N[C@@H](Cc1ccc(O)cc1)C(=O)N1CCC[C@H]1C(=O)N[C@@H](CCCNC(=N)N)C(=O)N[C@H](C(=O)N[C@@H](CC(N)=O)C(=O)N[C@H](C(=O)NCC(=O)N[C@@H](CO)C(=O)NCC(=O)N[C@H](C(=O)N1CCC[C@H]1C(N)=O)[C@@H](C)O)[C@@H](C)O)[C@@H](C)O)[C@@H](C)O [sCT, salmon calcitonin]	–	-8.457	-9.262	4.579	-0.8046	5.384	-8.131	-7.632	1.906	0.4986	1.408	-0.1355	-1.439	no effect	approx. 2 g	1.5 ± 0.2	45 to 60	15	no effect
